In paper PMC6195434 (Environmental science & technology, 2018):
Read-outs that look alike come from different tables or passages of the source.

Legend:
RyR1 [1] = target: T1, RyR1 (Oryctolagus cuniculus, UniProt P11716); assay: Equilibrium [3H]Ry binding analysis on RyR1-enriched microsomal membranes; design: species or system New Zealand White rabbits; conditions: for activity in enhancing [3H]Ry binding to RyR1: concentration-response, efficacy at 10 μM, Figure 3A, B; for RyR1 inhibitory potency compared with 6 / decrease of apparent activation potency relative to 6: Figure 3C table insert; for maximum efficacy relative to 6: higher maximum efficacy at 50 μM compared to that reached by 6 at 1 μM; for decrease of apparent activation potency relative to 6: less potent activator than 6
[2] = test system: microsomal (JSR) membrane vesicles; assay: Microsomal Ca2+ fluxes and Ca2+-induced Ca2+ release; type: biochemical, New Zealand White rabbits
SERCA1a = SERCA1a (Oryctolagus cuniculus, UniProt P04191); assay: biochemical; type: biochemical, New Zealand White rabbits; conditions: for inhibition at 10 µM: read-out: SERCA1a inhibition; for activity toward SERCA1a: Figure 5G
SERCA1a, sequence (P04191 1-994 isoform P04191-2): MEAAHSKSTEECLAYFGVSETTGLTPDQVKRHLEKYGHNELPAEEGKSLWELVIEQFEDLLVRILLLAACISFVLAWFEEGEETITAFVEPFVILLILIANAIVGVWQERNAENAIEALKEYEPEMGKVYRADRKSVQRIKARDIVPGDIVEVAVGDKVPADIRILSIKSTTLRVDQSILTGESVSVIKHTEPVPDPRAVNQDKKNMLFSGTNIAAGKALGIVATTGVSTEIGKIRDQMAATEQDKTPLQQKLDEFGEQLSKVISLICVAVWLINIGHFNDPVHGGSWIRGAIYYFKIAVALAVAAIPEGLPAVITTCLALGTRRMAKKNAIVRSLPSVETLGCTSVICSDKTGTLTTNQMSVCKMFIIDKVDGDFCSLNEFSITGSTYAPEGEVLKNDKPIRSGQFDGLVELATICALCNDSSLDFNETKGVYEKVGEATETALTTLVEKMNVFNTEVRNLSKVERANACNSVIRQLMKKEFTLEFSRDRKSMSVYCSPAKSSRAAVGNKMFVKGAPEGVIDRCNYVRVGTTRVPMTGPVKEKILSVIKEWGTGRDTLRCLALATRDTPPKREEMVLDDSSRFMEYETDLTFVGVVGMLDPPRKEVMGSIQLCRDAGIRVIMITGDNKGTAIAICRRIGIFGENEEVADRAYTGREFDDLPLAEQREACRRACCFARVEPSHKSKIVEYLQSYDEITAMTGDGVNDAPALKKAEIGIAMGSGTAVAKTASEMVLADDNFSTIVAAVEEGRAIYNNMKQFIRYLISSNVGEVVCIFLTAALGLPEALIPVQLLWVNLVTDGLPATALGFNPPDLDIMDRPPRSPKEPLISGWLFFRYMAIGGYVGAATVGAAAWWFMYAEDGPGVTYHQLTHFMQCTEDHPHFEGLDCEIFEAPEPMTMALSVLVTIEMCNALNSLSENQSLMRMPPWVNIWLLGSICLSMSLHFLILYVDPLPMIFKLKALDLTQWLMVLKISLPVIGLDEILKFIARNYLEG

RyR1 [3] = target: T1, RyR1; conditions: previous data; cited from earlier work
[4] = test system: CHO (Chinese hamster ovary) cells; conditions: cited from earlier work
[5] = test system: Platynereis dumerilii embryos; conditions: cited from earlier work
[6] = at 2 μM, baseline = binding in presence of Veh alone, p < 0.05 vs Veh
[7] = expanded concentration range, Figure 3C
[8] = 5 or 10 μM, initial 60 s release rate, vesicles loaded with 4 × 45 nmole Ca2+

CN1C(=O)C(Br)=C(Br)C1=O [Compound 28, 2,3-dibromo-N-methylmaleimide]
enhancement of [3H]Ry binding to RyR1 compared to baseline (RyR1 [1]; [6]): ≥ 1.5 fold | mode of modulation of RyR1 (RyR1 [1]; [7]): biphasic

Clc1[nH]c2ccccc2c1Cl [Compound 13, 2,3-dichloroindole]
enhancement of [3H]Ry binding to RyR1 compared to baseline (RyR1 [1]; [6]): ≥ 1.5 fold

Brc1[nH]c2ccccc2c1Br [Compound 14, 2,3-dibromoindole]
enhancement of [3H]Ry binding to RyR1 compared to baseline (RyR1 [1]; [6]): ≥ 1.5 fold | net release of accumulated Ca2+ from loaded microsomal vesicles [2, 8]: triggered dose-dependent Ca^2+ efflux | inhibition at 10 µM (SERCA1a): 60%

Brc1ccc(Oc2cc(Br)ccc2Br)c(Br)c1 [BDE-49]
mode of action toward RyR1 (RyR1 [3]): monotonic

Hexabromobipyrroles [Compound 25]
enhancement of [3H]Ry binding to RyR1 compared to baseline (RyR1 [1]; [6]): ≥ 1.5 fold | net release of accumulated Ca2+ from loaded microsomal vesicles [2, 8]: triggered dose-dependent Ca^2+ efflux | loading capacity of calcium into microsomal vesicles ([2]; concentration-dependent, Figure SI3): diminished the loading capacity | SERCA1a inhibition (SERCA1a; at 2.0 μM): > 80% | SERCA1a inhibition (SERCA1a; at 10 μM): ~ 90%

c1cc[nH]c1 [Compound 24, pyrrole]
activity in enhancing [3H]Ry binding to RyR1 (RyR1 [1]): inactive | activity toward SERCA1a (SERCA1a): inactive

Brc1cc(Br)c(Br)[nH]1 [Compound 34, 2,3,5-tribromopyrrole]
cytotoxicity [4]: cytotoxic | genotoxicity [4]: genotoxic | RyR1 inhibitory potency compared with 6 (RyR1 [1]): weaker inhibitors than 6 | enhancement of [3H]Ry binding to RyR1 compared to baseline (RyR1 [1]; [6]): ≥ 1.5 fold | mode of modulation of RyR1 (RyR1 [1]; [7]): biphasic | maximum efficacy relative to 6 (RyR1 [1]): 2.5 fold | decrease of apparent activation potency relative to 6 (RyR1 [1]): 107 fold | net release of accumulated Ca2+ from loaded microsomal vesicles [2, 8]: triggered dose-dependent Ca^2+ efflux | inhibition at 10 µM (SERCA1a): 48%

Oc1cc(Br)c(Oc2ccc(Br)cc2Br)cc1Br [Compound 4-OH-BDE-49, 4′hydroxy-2,2′,4,5′-tetrabromodiphenyl ether]
mode of action toward RyR1 (RyR1 [3]): biphasic

O=C1NC(=O)C(Br)=C1Br [Compound 6, 2,3-dibromomaleimide]
EC50 (RyR1 [1]): 360 nM | IC50 (RyR1 [1]): 3 µM | concentration at which RyR1 inhibitory phase was detected (RyR1 [1]): < 5 µM | concentration that maximally activated RyR1 (RyR1 [1]): 0.6−1.0 μM | enhancement of [3H]Ry binding to RyR1 compared to baseline (RyR1 [1]): ≥ 1.5 fold | mode of modulation of RyR1 (RyR1 [1]): biphasic | Ca2+-induced Ca2+ release rate vs control [2]: significantly higher rates of release than control | net release of accumulated Ca2+ from loaded microsomal vesicles [2]: failed to trigger net Ca^2+ efflux | sensitizing influence on calcium-induced calcium release [2]: did not reach statistical significance | SERCA1a inhibition (SERCA1a): without inhibition of SERCA1a | concentration at which SERCA1a inhibition was detected (only the highest tested) (SERCA1a): 10 µM | inhibition at 10 µM (SERCA1a): 50%

Brc1[nH]c(Br)c(Br)c1Br [Compound 31, tetrabromopyrrole]
developmental toxicity [5]: potent developmental toxicity | RyR1 inhibitory potency compared with 6 (RyR1 [1]): weaker inhibitors than 6 | enhancement of [3H]Ry binding to RyR1 compared to baseline (RyR1 [1]; [6]): ≥ 1.5 fold | mode of modulation of RyR1 (RyR1 [1]; [7]): biphasic | maximum efficacy relative to 6 (RyR1 [1]): 2.5 fold | decrease of apparent activation potency relative to 6 (RyR1 [1]): 68 fold | net release of accumulated Ca2+ from loaded microsomal vesicles [2, 8]: triggered dose-dependent Ca^2+ efflux | SERCA1a inhibition (SERCA1a; at 10 μM): 80%

Brc1c[nH]c(Br)c1Br [Compound 26, 2,3,4-tribromopyrrole]
activity in enhancing [3H]Ry binding to RyR1 (RyR1 [1]): inactive | net release of accumulated Ca2+ from loaded microsomal vesicles [2, 8]: failed to trigger net release | activity toward SERCA1a (SERCA1a): inactive

Oc1c(Br)cc(Oc2c(Br)cc(Br)cc2Br)cc1Br [Compound 18, 4′-hydroxy-2,3′,4,5′,6-pentabromodiphenyl ether]
enhancement of [3H]Ry binding to RyR1 compared to baseline (RyR1 [1]; [6]): ≥ 1.5 fold | net release of accumulated Ca2+ from loaded microsomal vesicles [2, 8]: triggered dose-dependent Ca^2+ efflux | SERCA1a inhibition (SERCA1a; at 2.0 μM): > 80% | SERCA1a inhibition (SERCA1a; at 10 μM): ~ 90%

CCOC(=O)c1cc(Br)c[nH]1 [Compound 27, ethyl-4-bromopyrrole-2-carboxylate]
activity in enhancing [3H]Ry binding to RyR1 (RyR1 [1]): inactive | net release of accumulated Ca2+ from loaded microsomal vesicles [2, 8]: failed to trigger net release | activity toward SERCA1a (SERCA1a): inactive
